# Results: patent US8853230B2, “Inhibitors of JAK” (Portola Pharmaceuticals, Inc., priority 2009, dated 2014)
# pIC50: −log10 of the molar value.
# How the values were obtained:
# Format in all cases: biochemical
# [1] = molecular target: T1, TYK2 (Homo sapiens, UniProt P29597); experiment: Z'-LYTE kinase assay, TYK2 tyrosine phosphorylation activity
# T1 construct: 5 μl of catalytic domain recombinant Kinase enzyme+Tyr peptide substrate (Invitrogen, Calif.); purchased Invitrogen
# T1 sequence (P29597 897-1176 limits assumed): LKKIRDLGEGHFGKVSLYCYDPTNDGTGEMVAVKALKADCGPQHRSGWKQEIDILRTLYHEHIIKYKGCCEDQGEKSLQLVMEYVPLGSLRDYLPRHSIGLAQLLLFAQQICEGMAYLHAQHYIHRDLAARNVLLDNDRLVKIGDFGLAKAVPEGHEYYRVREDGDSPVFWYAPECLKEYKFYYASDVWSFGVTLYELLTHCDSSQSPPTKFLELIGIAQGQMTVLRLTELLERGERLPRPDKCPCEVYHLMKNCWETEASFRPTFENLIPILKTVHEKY
# In short: (§1)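 Recombinant catalytic-domain kinase was incubated with coumarin/fluorescein-labelled Tyr6 peptide, ATP and compound (1% DMSO final) for 1 h at room temperature. Protease development then ran 1 h at room temperature. Emission ratio at 445/520 nm (excitation 400 nm) gave percent phosphorylation; IC50s came from 4-parameter logistic fits.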
# [2] = molecular target: T2, JAK3 (Homo sapiens, UniProt P52333); experiment: Z'-LYTE kinase assay, JAK3 tyrosine phosphorylation activity
# T2 construct: 5 μl of catalytic domain recombinant Kinase enzyme+Tyr peptide substrate (Invitrogen, Calif.); purchased Invitrogen
# In short: as §1
# [3] = molecular target: T3, JAK1 (Homo sapiens, UniProt P23458); experiment: Z'-LYTE kinase assay, JAK1 tyrosine phosphorylation activity; settings: read-out: JAK 1 IC50
# T3 construct: 5 μl of catalytic domain recombinant Kinase enzyme+Tyr peptide substrate (Invitrogen, Calif.); purchased Invitrogen
# In short: as §1
# [4] = molecular target: T4, JAK2 (Homo sapiens, UniProt O60674); experiment: Z'-LYTE kinase assay, JAK2 tyrosine phosphorylation activity
# T4 construct: 5 μl of catalytic domain recombinant Kinase enzyme+Tyr peptide substrate (Invitrogen, Calif.); purchased Invitrogen
# In short: as §1
# T3 sequence (P23458 875-1153 limits assumed): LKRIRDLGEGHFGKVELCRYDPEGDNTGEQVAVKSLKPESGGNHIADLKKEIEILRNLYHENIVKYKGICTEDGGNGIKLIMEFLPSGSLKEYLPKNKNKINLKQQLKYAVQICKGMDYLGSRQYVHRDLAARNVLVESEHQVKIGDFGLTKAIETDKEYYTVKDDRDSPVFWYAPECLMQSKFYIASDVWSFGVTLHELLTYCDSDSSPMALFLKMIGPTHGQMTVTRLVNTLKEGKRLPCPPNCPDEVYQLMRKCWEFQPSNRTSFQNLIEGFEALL
# T4 sequence (O60674 849-1124 limits assumed): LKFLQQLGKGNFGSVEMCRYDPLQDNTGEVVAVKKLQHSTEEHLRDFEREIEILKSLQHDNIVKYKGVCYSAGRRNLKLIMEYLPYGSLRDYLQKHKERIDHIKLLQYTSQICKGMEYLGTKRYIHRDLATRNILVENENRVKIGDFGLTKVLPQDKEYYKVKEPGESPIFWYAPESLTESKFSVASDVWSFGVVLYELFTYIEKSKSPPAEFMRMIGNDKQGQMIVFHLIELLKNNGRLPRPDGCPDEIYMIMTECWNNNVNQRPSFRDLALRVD
# T2 sequence (P52333 822-1111 limits assumed): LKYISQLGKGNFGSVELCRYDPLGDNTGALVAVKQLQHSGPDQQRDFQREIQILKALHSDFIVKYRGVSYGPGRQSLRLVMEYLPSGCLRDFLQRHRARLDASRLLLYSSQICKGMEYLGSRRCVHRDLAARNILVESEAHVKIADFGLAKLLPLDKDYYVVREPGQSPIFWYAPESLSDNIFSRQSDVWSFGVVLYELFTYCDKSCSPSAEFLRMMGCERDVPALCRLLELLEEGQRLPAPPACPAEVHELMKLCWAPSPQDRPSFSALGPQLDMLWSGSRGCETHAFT
SMILES,pIC50 [1],pIC50 [2],pIC50 [3],pIC50 [4]
"CC(=O)Nc1cccc(Nc2ncc(C(N)=O)c(Nc3cccc4c3cnn4C)n2)c1 [Example 191, 2-(3-acetamidophenylamino)-4-(1-methyl-1H-indazol-4-ylamino)pyrimidine-5-carboxamide]",7.00 to 8.00,8.00 to 9.00,7.00 to 8.00,7.00 to 8.00
"CC(=O)Nc1cccc(Nc2ncc(C(N)=O)c(NCc3ccc(F)cc3)n2)c1 [Example 103, 2-(3-acetamidophenylamino)-4-(4-fluorobenzylamino)pyrimidine-5-carboxamide]",7.00 to 8.00,7.00 to 8.00,6.00 to 7.00,7.00 to 8.00
"CC(=O)Nc1cccc(Nc2ncc(C(N)=O)c(NCc3ccccn3)n2)c1 [Example 187, 2-(3-acetamidophenylamino)-4-(pyridin-2-ylmethylamino)pyrimidine-5-carboxamide]",7.00 to 8.00,7.00 to 8.00,6.00 to 7.00,7.00 to 8.00
"CC(=O)Nc1cccc(Nc2ncc(C(N)=O)c(NCC(C)C)n2)c1 [Example 235, 2-(3-acetamidophenylamino)-4-(isobutylamino)pyrimidine-5-carboxamide]",8.00 to 9.00,8.00 to 9.00,7.00 to 8.00,7.00 to 8.00
"CC(=O)Nc1cc(Cl)cc(Nc2ncc(C(N)=O)c(NCc3cccc(F)c3)n2)c1 [Example 261, 2-(3-acetamido-5-chlorophenylamino)-4-(3-fluorobenzylamino)pyrimidine-5-carboxamide]",7.00 to 8.00,7.00 to 8.00,< 6.00,7.00 to 8.00
CC(=O)Nc1cccc(Nc2ncc(C(N)=O)c(Nc3ccc(S(C)(=O)=O)cc3)n2)c1 [Example 197],7.00 to 8.00,7.00 to 8.00,< 6.00,7.00 to 8.00
"CC(=O)Nc1cccc(Nc2ncc(C(N)=O)c(Nc3cccc4nsnc34)n2)c1 [Example 192, 2-(3-acetamidophenylamino)-4-(benzo[c][1,2,5]thiadiazo-4-ylamino)pyrimidine-5-carboxamide]",7.00 to 8.00,8.00 to 9.00,< 6.00,7.00 to 8.00
"CC(=O)Nc1cc(Nc2ncc(C(N)=O)c(Nc3cccc4nn(C)cc34)n2)ccc1OCCN1CCCC1 [Example 224, 2-(3-acetamido-4-(2-(pyrrolidin-1-yl)ethoxy)phenylamino)-4-(2-methyl-2H-indazol-4-ylamino)pyrimidine-5-carboxamide]",6.00 to 7.00,7.00 to 8.00,6.00 to 7.00,7.00 to 8.00
"COCC(=O)N(c1cccc(Nc2ncc(C(N)=O)c(NCc3ccccc3)n2)c1)C1CC1 [Example 150, 4-(benzylamino)-2-(3-(N-cyclopropyl-2-methoxyacetamido)phenylamino)pyrimidine-5-carboxamide]",6.00 to 7.00,6.00 to 7.00,< 6.00,< 6.00
"NC(=O)c1cnc(Nc2ccc(Cl)c(NC(=O)NC3CCC3)c2)nc1NCc1ccccc1 [Example 107, 4-(benzylamino)-2-(4-chloro-3-(3-cyclobutylureido)phenylamino)pyrimidine-5-carboxamide]",6.00 to 7.00,6.00 to 7.00,< 6.00,< 6.00
"CNC(=O)Nc1ccc(F)c(Nc2ncc(C(N)=O)c(NCc3ccccc3)n2)c1 [Example 200, 4-(benzylamino)-2-(2-fluoro-5-(3-methylureido)phenylamino)pyrimidine-5-carboxamide]",6.00 to 7.00,7.00 to 8.00,< 6.00,< 6.00
"CC(=O)Nc1cccc(Nc2ncc(C(N)=O)c(N[C@H](C)C(N)=O)n2)c1 [Example 91, (R)-2-(3-acetamidophenylamino)-4-(1-amino-1-oxopropan-2-ylamino)pyrimidine-5-carboxamide]",7.00 to 8.00,7.00 to 8.00,7.00 to 8.00,7.00 to 8.00
"N#CCC(=O)Nc1cccc(Nc2ncc(C(N)=O)c(NCc3cccc(F)c3)n2)c1 [Example 257, 2-(3-(2-cyanoacetamido)phenylamino)-4-(3-fluorobenzylamino)-pyrimidine-5-carboxamide]",8.00 to 9.00,> 9.00,7.00 to 8.00,8.00 to 9.00
"CC[C@H](C)Nc1nc(Nc2ccc(Cl)c(NC(=O)N3CCCC3)c2)ncc1C(N)=O [Example 176, (S)-4-(sec-butylamino)-2-(4-chloro-3-(pyrrolidine-1-carboxamido)phenylamino)pyrimidine-5-carboxamide]",7.00 to 8.00,7.00 to 8.00,7.00 to 8.00,6.00 to 7.00
"CC(C)CNc1nc(Nc2ccc(Cl)c(NC(=O)N3CCCC3)c2)ncc1C(N)=O [Example 236, 2-(4-chloro-3-(pyrrolidine-1-carboxamido)phenylamino)-4-(isobutylamino)pyrimidine-5-carboxamide]",7.00 to 8.00,7.00 to 8.00,7.00 to 8.00,7.00 to 8.00
"CC(=O)Nc1cccc(Nc2ncc(C(N)=O)c(NCc3cccc(F)c3F)n2)c1 [Example 95, 2-(3-acetamidophenylamino)-4-(2,3-difluorobenzylamino)pyrimidine-5-carboxamide]",7.00 to 8.00,8.00 to 9.00,7.00 to 8.00,7.00 to 8.00
CC(=O)Nc1cccc(Nc2ncc(C(N)=O)c(Nc3cccc(-c4ncccn4)c3)n2)c1 [Example 199],7.00 to 8.00,7.00 to 8.00,7.00 to 8.00,7.00 to 8.00
"CC[C@H](C)Nc1nc(Nc2cccc(NC(=O)COC)c2)ncc1C(N)=O [Example 144, (S)-4-(sec-butylamino)-2-(3-(2-methoxyacetamido)phenylamino)pyrimidine-5-carboxamide]",7.00 to 8.00,7.00 to 8.00,6.00 to 7.00,6.00 to 7.00
"CC(=O)Nc1cccc(Nc2ncc(C(N)=O)c(NCC3CCC3)n2)c1 [Example 262, 2-(3-acetamidophenylamino)-4-(cyclobutylmethylamino)pyrimidine-5-carboxamide]",8.00 to 9.00,8.00 to 9.00,7.00 to 8.00,7.00 to 8.00
CCC(C)CNc1nc(Nc2ccc(Cl)c(NC(=O)N3CCCC3)c2)ncc1C(N)=O (centres unmarked) [Example 250],7.00 to 8.00,8.00 to 9.00,7.00 to 8.00,6.00 to 7.00

# Second part, the molecule after the results:
pIC50 [1],pIC50 [2],pIC50 [3],pIC50 [4],SMILES
7.00 to 8.00,8.00 to 9.00,6.00 to 7.00,7.00 to 8.00,"C[C@@H](Nc1nc(Nc2cccc(NC(=O)[C@@H]3CCCO3)c2)ncc1C(N)=O)c1ccccc1 [Example 207, 4-((R)-1-phenylethylamino)-2-(3-((S)-tetrahydrofuran-2-carboxamido)phenylamino)pyrimidine-5-carboxamide]"
6.00 to 7.00,8.00 to 9.00,6.00 to 7.00,6.00 to 7.00,"C[C@@H](Nc1cc(Nc2cccc(NC(=O)N3CCCC3)c2)ncc1C(N)=O)c1ccccc1 [Example 325, (R)-4-(1-phenylethylamino)-6-(3-(pyrrolidine-1-carboxamido)phenylamino)nicotinamide]"
7.00 to 8.00,8.00 to 9.00,7.00 to 8.00,7.00 to 8.00,"COCC(=O)N(c1cccc(Nc2ncc(C(N)=O)c(N[C@H](C)c3ccccc3)n2)c1)C1CC1 [Example 162, (R)-2-(3-(N-cyclopropyl-2-methoxyacetamido)phenylamino)-4-(1-phenylethylamino)pyrimidine-5-carboxamide]"
6.00 to 7.00,8.00 to 9.00,6.00 to 7.00,7.00 to 8.00,"CN(C(=O)N1CCCC1)c1cccc(Nc2ncc(C(N)=O)c(NCc3ccccc3)n2)c1 [Example 141, 4-(benzylamino)-2-(3-(N-methylpyrrolidine-1-carboxamido)phenylamino)pyrimidine-5-carboxamide]"
6.00 to 7.00,7.00 to 8.00,6.00 to 7.00,6.00 to 7.00,"COCC(=O)Nc1cc(Nc2ncc(C(N)=O)c(N[C@H](C)c3ccccc3)n2)ccc1Cl [Example 109, (R)-2-(4-chloro-3-(2-methoxyacetamido)phenylamino)-4-(1-phenylethylamino)pyrimidine-5-carboxamide]"
7.00 to 8.00,6.00 to 7.00,6.00 to 7.00,6.00 to 7.00,"CC(=O)Nc1cccc(Nc2cc(NC3CCCC3)c(C(N)=O)cn2)c1 [Example 330, 6-(3-acetamidophenylamino)-4-(cyclopentylamino)nicotinamide]"
7.00 to 8.00,7.00 to 8.00,6.00 to 7.00,6.00 to 7.00,"CC(=O)Nc1cccc(Nc2cc(NCCC(C)C)c(C(N)=O)cn2)c1 [Example 327, 6-(3-acetamidophenylamino)-4-(isopentylamino)nicotinamide]"
7.00 to 8.00,8.00 to 9.00,7.00 to 8.00,7.00 to 8.00,"CCNc1nc(Nc2cccc(NC(=O)N3CCCC3)c2)ncc1C(N)=O [Example 134, 4-(ethylamino)-2-(3-(pyrrolidine-1-carboxamido)phenylamino)pyrimidine-5-carboxamide]"
6.00 to 7.00,7.00 to 8.00,6.00 to 7.00,6.00 to 7.00,"CC(=O)Nc1cccc(Nc2ncc(C(N)=O)c(N[C@@H](c3ccccc3)C3CC3)n2)c1 [Example 152, (R)-2-(3-acetamidophenylamino)-4-(cyclopropyl(phenyl)methylamino)pyrimidine-5-carboxamide]"
